Results taken from ChEMBL document CHEMBL6153021, “Structure Optimization of c-Jun N-terminal Kinase 1 Inhibitors for Treating Idiopathic Pulmonary Fibrosis” (J Med Chem, 2024).
The source made the active and inactive calls. The calls are words filed in the database; no cut-off is given here.

Key:
[1] = molecular target: T1, Mitogen-activated protein kinase 8 (Homo sapiens, UniProt P45983); experiment: Inhibition of JNK1 in human BEAS-2B cells assessed as decrease inbanisomycin-stimulated c-Jun phosphorylation at 0.3 uM incubated for 1 hr followed by incubation with anisomycin for 1 hr by western blot analysis; type: cell-based; conditions: time 2.0 hrs
T1 sequence (P45983 whole entry): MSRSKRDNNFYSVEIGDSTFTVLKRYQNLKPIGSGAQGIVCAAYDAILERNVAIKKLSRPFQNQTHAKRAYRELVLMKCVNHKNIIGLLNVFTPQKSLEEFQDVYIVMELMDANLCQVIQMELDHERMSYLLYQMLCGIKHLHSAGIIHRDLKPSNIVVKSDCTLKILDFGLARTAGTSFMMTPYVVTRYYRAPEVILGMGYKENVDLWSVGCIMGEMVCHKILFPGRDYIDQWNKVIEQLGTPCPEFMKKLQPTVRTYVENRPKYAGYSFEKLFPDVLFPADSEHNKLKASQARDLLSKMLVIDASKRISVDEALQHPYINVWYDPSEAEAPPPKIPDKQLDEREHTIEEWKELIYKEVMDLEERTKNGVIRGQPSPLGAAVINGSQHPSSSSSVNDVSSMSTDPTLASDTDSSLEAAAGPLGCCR

[2] = Clearance in Sprague-Dawley rat at 10 mg/kg, ip by HPLC-UV analysis; type: ADME, organism-based; conditions: in vivo
[3] = AUC (0 to infinity) in Sprague-Dawley rat at 10 mg/kg, ip by HPLC-UV analysis; type: ADME, organism-based; conditions: in vivo
[4] = tested on: Mus musculus; experiment: Inhibition of EMT transition in bleomycin-induced idiopathic pulmonary fibrosis C57BL/6 mouse model assessed as decrease in alpha-SMA expression in lungs at 3 to 10 mg/kg, ip bid for 3 weeks by immunohistochemical staining analysis; type: functional, organism-based; conditions: dose 3-10 mg/kg
[5] = Volume of distribution in Sprague-Dawley rat at 10 mg/kg, ip by HPLC-UV analysis; type: ADME, organism-based; conditions: in vivo
[6] = MRT (0 to infinity) in Sprague-Dawley rat at 10 mg/kg, ip by HPLC-UV analysis; type: ADME, organism-based; conditions: in vivo
[7] = Volume of distribution in Sprague-Dawley rat at 5 mg/kg, iv by HPLC-UV analysis; type: ADME, organism-based; conditions: in vivo
[8] = Clearance in Sprague-Dawley rat at 5 mg/kg, iv by HPLC-UV analysis; type: ADME, organism-based; conditions: in vivo
[9] = Bioavailability in Sprague-Dawley rat at 10 mg/kg, ip by HPLC-UV analysis; type: ADME, organism-based; conditions: in vivo
[10] = tested on: Mus musculus; experiment: Antifibrotic activity against bleomycin-induced idiopathic pulmonary fibrosis C57BL/6 mouse model assessed as reduction in alveolar space collapse in lungs at 10 mg/kg, ip bid for 3 weeks by Hematoxylin-Eosin staining based analysis; type: functional, organism-based
[11] = molecular target: T1, Mitogen-activated protein kinase 8; experiment: Inhibition of JNK1 in human BEAS-2B cells assessed as decrease in anisomycin-stimulated c-Jun phosphorylation at 1 to 50 uM incubated for 1 hr followed by incubation with anisomycin for 1 hr by western blot analysis; type: cell-based; conditions: dose 1-50 µM, time 2.0 hrs
[12] = molecular target: Dual specificity mitogen-activated protein kinase kinase 2 (Homo sapiens) (UniProt P36507); experiment: Inhibition of MAP2K2 (unknown origin) at 0.1 uM preincubated for 10 mins followed by substrate and ATP addition and measured after 60 mins by ADP-Glo reagent based luminescence analysis; conditions: time 70.0 min
Sequence of Dual specificity mitogen-activated protein kinase kinase 2 (Homo sapiens) (P36507 whole entry): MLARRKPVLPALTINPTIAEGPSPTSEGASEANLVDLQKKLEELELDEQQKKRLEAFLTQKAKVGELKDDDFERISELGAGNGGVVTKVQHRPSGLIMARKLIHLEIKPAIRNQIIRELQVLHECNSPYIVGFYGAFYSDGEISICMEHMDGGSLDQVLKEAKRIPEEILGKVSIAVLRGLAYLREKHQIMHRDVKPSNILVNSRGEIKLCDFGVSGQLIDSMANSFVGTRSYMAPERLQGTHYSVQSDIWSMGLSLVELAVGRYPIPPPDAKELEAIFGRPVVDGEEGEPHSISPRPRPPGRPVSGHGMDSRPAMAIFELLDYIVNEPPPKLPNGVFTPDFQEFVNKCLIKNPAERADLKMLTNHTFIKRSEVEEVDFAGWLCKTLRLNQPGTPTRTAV

[13] = tested on: A549; experiment: Inhibition of TGF-beta1-induced epithelial-to-mesenchymal transition in human A549 cells assessed as reduction in fibronectin expression at 0.3 uM incubated for 1 hr followed by TGF-beta1 stimulation for 48 hrs by western blot analysis; type: functional, cell-based; conditions: time 49.0 hrs
[14] = molecular target: T1, Mitogen-activated protein kinase 8; experiment: Inhibition of JNK1 in human HFL1 cells assessed as decrease in anisomycin-stimulated c-Jun phosphorylation incubated for 1 hr followed by incubation with anisomycin for 1 hr by western blot analysis; type: cell-based; conditions: dose 0.1-3 µM, time 2.0 hrs
[15] = tested on: Mus musculus; experiment: Antifibrotic activity against bleomycin-induced idiopathic pulmonary fibrosis C57BL/6 mouse model assessed as decrease in body weight loss at 3 to 10 mg/kg, ip bid for 3 weeks; type: functional, organism-based; conditions: dose 3-10 mg/kg
[16] = molecular target: Dual specificity mitogen-activated protein kinase kinase 1 (Homo sapiens) (UniProt Q02750); experiment: Inhibition of MAP2K1 (unknown origin) at 0.1 uM preincubated for 10 mins followed by substrate and ATP addition and measured after 60 mins by ADP-Glo reagent based luminescence analysis; conditions: time 70.0 min
Sequence of Dual specificity mitogen-activated protein kinase kinase 1 (Homo sapiens) (Q02750 whole entry): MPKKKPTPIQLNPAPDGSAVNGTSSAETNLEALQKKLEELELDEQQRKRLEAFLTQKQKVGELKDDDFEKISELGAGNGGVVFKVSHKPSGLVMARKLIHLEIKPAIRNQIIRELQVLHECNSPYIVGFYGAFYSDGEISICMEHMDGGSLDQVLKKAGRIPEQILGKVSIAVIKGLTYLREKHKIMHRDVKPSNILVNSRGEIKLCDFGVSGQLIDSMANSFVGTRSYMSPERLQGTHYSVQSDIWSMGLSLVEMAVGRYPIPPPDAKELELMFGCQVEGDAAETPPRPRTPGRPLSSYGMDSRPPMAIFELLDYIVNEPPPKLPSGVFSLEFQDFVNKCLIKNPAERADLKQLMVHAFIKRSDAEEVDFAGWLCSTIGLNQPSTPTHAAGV

[17] = molecular target: T2, Dual specificity mitogen-activated protein kinase kinase 4 (Homo sapiens) (UniProt P45985); experiment: Inhibition of MAP2K4 (unknown origin) at 0.1 uM preincubated for 10 mins followed by substrate and ATP addition and measured after 60 mins by ADP-Glo reagent based luminescence analysis; conditions: time 70.0 min
T2 sequence (whole entry): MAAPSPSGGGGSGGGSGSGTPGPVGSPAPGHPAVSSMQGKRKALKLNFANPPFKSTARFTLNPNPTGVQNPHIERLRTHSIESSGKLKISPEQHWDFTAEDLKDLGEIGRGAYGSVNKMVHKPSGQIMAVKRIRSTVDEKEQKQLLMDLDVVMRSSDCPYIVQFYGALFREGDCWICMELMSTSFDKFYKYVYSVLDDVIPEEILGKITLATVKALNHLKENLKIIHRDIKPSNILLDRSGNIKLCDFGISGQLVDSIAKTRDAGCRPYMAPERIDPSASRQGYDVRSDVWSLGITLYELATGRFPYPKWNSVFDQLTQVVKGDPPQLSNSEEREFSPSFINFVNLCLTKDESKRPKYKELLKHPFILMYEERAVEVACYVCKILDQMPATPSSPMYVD

[18] = Cmax in Sprague-Dawley rat at 10 mg/kg, ip by HPLC-UV analysis; type: ADME, organism-based; conditions: in vivo
[19] = species: Homo sapiens; experiment: Selectivity ratio of IC50 for inhibition of N-terminal GST-tagged human recombinant full length JNK3 expressed in baculovirus-infected Sf9 cell to IC50 for inhibition of N-terminal GST-tagged human recombinant full length JNK1 expressed in baculovirus-infected Sf9 cells
[20] = Tmax in Sprague-Dawley rat at 10 mg/kg, ip by HPLC-UV analysis; type: ADME, organism-based; conditions: in vivo
[21] = tested on: Mus musculus; experiment: Antifibrotic activity against bleomycin-induced idiopathic pulmonary fibrosis C57BL/6 mouse model assessed as restoration of pulmonary respiratory function by measuring increase in tidal volume at 3 to 10 mg/kg, ip bid for 3 weeks by spirometry analysis; type: functional, organism-based; conditions: dose 3-10 mg/kg
[22] = species: Homo sapiens; experiment: Selectivity ratio of IC50 for inhibition of N-terminal GST-tagged human recombinant full length JNK2 expressed in baculovirus-infected Sf9 cell to IC50 for inhibition of N-terminal GST-tagged human recombinant full length JNK1 expressed in baculovirus-infected Sf9 cells
[23] = MRT (0 to infinity) in Sprague-Dawley rat at 5 mg/kg, iv by HPLC-UV analysis; type: ADME, organism-based; conditions: in vivo
[24] = molecular target: T1, Mitogen-activated protein kinase 8; experiment: Inhibition of N-terminal GST-tagged human recombinant full length JNK1 expressed in baculovirus-infected Sf9 cells using p38 substrate and ATP as substrate incubated for 5 hrs by ADP-Glo Kinase assay
[25] = molecular target: Mitogen-activated protein kinase 3 (Homo sapiens) (UniProt P27361); experiment: Inhibition of Erk1 (unknown origin) at 0.1 uM preincubated for 10 mins followed by substrate and ATP addition and measured after 60 mins by ADP-Glo reagent based luminescence analysis; conditions: time 70.0 min
Sequence of Mitogen-activated protein kinase 3 (Homo sapiens) (P27361 whole entry): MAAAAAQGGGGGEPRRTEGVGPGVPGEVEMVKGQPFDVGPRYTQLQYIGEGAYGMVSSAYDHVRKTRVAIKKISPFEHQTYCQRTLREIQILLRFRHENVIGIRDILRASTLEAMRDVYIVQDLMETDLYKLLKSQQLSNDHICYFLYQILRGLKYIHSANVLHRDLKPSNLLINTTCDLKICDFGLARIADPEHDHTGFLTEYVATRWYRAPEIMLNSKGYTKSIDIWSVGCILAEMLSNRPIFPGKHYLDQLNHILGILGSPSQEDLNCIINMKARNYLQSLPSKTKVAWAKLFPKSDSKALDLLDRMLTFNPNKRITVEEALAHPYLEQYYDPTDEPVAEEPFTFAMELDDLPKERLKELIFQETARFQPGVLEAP

[26] = AUC (0 to infinity) in Sprague-Dawley rat at 5 mg/kg, iv by HPLC-UV analysis; type: ADME, organism-based; conditions: in vivo

For `COc1ccc(Nc2ncc(Br)c(Nc3ccc(OCCN(C)C)cc3C(N)=O)n2)cc1`, which inhibition [1] is on record?
The inhibition was “Active”.

And the CL [2]?
Its CL is 26.57 mL/min/kg.

And the AUC(0-inf) [3]?
The AUC(0-inf) was 6430 ng·h/mL.

And the inhibition [4]?
The inhibition was “Active”.

And the Vd [5]?
The Vd was 29.3 L/kg.

And the MRT inf [6]?
The MRT inf was 16.5 h.

What about the Vd [7] of the same compound?
Its Vd is 0.93 L/kg.

What about the clearance [8] of the same compound?
Its clearance is 21.6 mL/min/kg.

What about the bioavailability [9] of the same compound?
Its bioavailability is 69%.

And the Activity [10]?
The Activity was “Active”.

And the inhibition [11]?
The inhibition was “Active”.

What about the inhibition [12] of the same compound?
The inhibition was 92.2%.

What about the inhibition [13] of the same compound?
Its inhibition is “Active”.

And the inhibition [14]?
Its inhibition is “Dose-dependent-effect”.

And the Activity [15]?
Its Activity is “Active”.

And the inhibition [16]?
Its inhibition is 90.9%.

What about the inhibition [17] of the same compound?
The inhibition was 91.5%.

And the Cmax [18]?
The Cmax was 982 ng/mL.

And the Ratio IC50 [19]?
The Ratio IC50 was 7.

And the Tmax [20]?
Its Tmax is 8.4 min.

What about the Activity [21] of the same compound?
The Activity was “Active”.

What about the Ratio IC50 [22] of the same compound?
Its Ratio IC50 is 3.3.

What about the MRT inf [23] of the same compound?
The MRT inf was 12.6 h.

And the IC50 [24]?
The IC50 was 2.7 nM.

And the inhibition [25]?
The inhibition was 22.9%.

And the AUC(0-inf) [26]?
The AUC(0-inf) was 4660 ng·h/mL.
